Data published in US20050250836A1, “Inhibitors of checkpoint kinases (Wee1 and Chk1)” (Pfizer Inc, priority 2004, published 2005).

Row | Structure (SMILES) | melting point
1 | O=C1NC(=O)c2c1c(-c1ccccc1Cl)cc1c2c(Br)cn1CCCN1CCOCC1 [Example 139, 8-Bromo-4-(2-chlorophenyl)-6-(3-morpholin-4-ylpropyl)-6H-2,6-diaza-as-indacene-1,3-dione] | 117 to 120 °C
2 | CN(C)CCCn1cc(Br)c2c3c(c(-c4ccccc4Cl)cc21)C(=O)NC3=O [Example 140, 8-Bromo-4-(2-chlorophenyl)-6-(3-dimethylaminopropyl)-6H-2,6-diaza-as-indacene-1,3-dione] | 160 to 162 °C
3 | CCCN(CCC)CCCn1cc(Br)c2c3c(c(-c4ccccc4Cl)cc21)C(=O)NC3=O [Example 141, 8-Bromo-4-(2-chlorophenyl)-6-(3-dipropylaminopropyl)-6H-2,6-diaza-as-indacene-1,3-dione] | 173 to 175 °C
4 | O=C1NC(=O)c2c1c(-c1ccccc1Cl)cc1c2ccn1CCN1CCCC1 [Example 142, 4-(2-Chlorophenyl)-6-(2-pyrrolidin-1-ylethyl)-6H-2,6-diaza-as-indacene-1,3-dione] | 208 to 209 °C
5 | C=Cc1cn(C)c2cc(-c3ccccc3Cl)c3c(c12)C(=O)NC3=O [Example 145, 4-(2-Chlorophenyl)-6-methyl-8-vinyl-6H-2,6-diaza-as-indacene-1,3-dione] | 200 to 205 °C
6 | Cn1cc(C(O)CO)c2c3c(c(-c4ccccc4Cl)cc21)C(=O)NC3=O (stereo not drawn) [Example 146, 4-(2-Chlorophenyl)-8-(1,2-dihydroxyethyl)-6-methyl-6H-2,6-diaza-as-indacene-1,3-dione] | 179 to 183 °C
7 | Cn1cc(CCO)c2c3c(c(-c4ccccc4Cl)cc21)C(=O)NC3=O [Example 147, 4-(2-Chlorophenyl)-8-(2-hydroxyethyl)-6-methyl-6H-2,6-diaza-as-indacene-1,3-dione] | 225 to 229 °C
8 | CCc1cn(C)c2cc(-c3ccccc3Cl)c3c(c12)C(=O)NC3=O [Example 148, 4-(2-Chlorophenyl)-8-ethyl-6-methyl-6H-2,6-diaza-as-indacene-1,3-dione] | 230 to 233 °C

Continued, values first:

Row | melting point | Structure (SMILES)
9 | 125 to 129 °C | C#Cc1cn(C)c2cc(-c3ccccc3Cl)c3c(c12)C(=O)NC3=O [Example 149, 4-(2-Chlorophenyl)-8-ethynyl-6-methyl-6H-2,6-diaza-as-indacene-1,3-dione]
10 | 154 to 157 °C | COc1ccccc1-c1cc2c(c(C#CCO)cn2C)c2c1C(=O)NC2=O [Example 150, 8-(3-Hydroxyprop-1-ynyl)-4-(2-methoxyphenyl)-6-methyl-6H-2,6-diaza-as-indacene-1,3-dione]
11 | 160 to 163 °C | Cn1cc(C#N)c2c3c(c(-c4ccccc4Cl)cc21)C(=O)NC3=O [Example 151, 4-(2-Chlorophenyl)-6-methyl-1,3-dioxo-1,2,3,6-tetrahydro-2,6-diaza-as-indacene-8-carbonitrile]
12 | 182 to 186 °C | O=C(O)CCn1cc(Br)c2c3c(c(-c4ccccc4Cl)cc21)C(=O)NC3=O [Example 165, 3-[8-Bromo-4-(2-chlorophenyl)-1,3-dioxo-2,3-dihydro-1H-2,6-diaza-as-indacen-6-yl]propionic acid]
13 | 160 to 165 °C (dec.) | Cn1cc(CN2CCCC2)c2c3c(c(-c4ccccc4Cl)cc21)C(=O)NC3=O [Example 166, 4-(2-Chlorophenyl)-6-methyl-8-pyrrolidin-1-ylmethyl-6H-2,6-diaza-as-indacene-1,3-dione]
14 | 155 to 159 °C | CN(C)Cc1cn(C)c2cc(-c3ccccc3Cl)c3c(c12)C(=O)NC3=O [Example 167, 4-(2-Chlorophenyl)-8-dimethylaminomethyl-6-methyl-6H-2,6-diaza-as-indacene-1,3-dione]
15 | 270 to 274 °C | Cn1cc(CO)c2c3c(c(-c4ccccc4Cl)cc21)C(=O)NC3=O [Example 168, 4-(2-chlorophenyl)-8-hydroxymethyl-6-methyl-6H-2,6-diaza-as-indacene-1,3-dione]
